Measured values published in patent US5089654A, “Chalcone derivatives” (Taisho Pharmaceutical Co., Ltd., priority 1989, dated 1992).

Legend:
[1] = tested on: stress ulcer; assay: Stress Ulcer Inhibition Test; type: in vivo, Male Wistar rats; conditions: Rattus norvegicus, 7 h, oral, Wistar rats, read-out: Inhibition ratio (stress ulcer)
Procedure: Experiment 1 Stress Ulcer Inhibition Test
(§1) The test drugs used were the compounds obtained in the foregoing Examples. Number in test drug column of Table 8 means a compound which is prepared in the correspondingly numbered Example.
Also, symbols A-E in test drug column of Table 8 mean the following compounds used as the control compounds.
The stress ulcer inhibition test was carried out according to a method of K. Takagi et al as described in Japan J. Pharmacol., vol. 18, page 9 (1968).
Male Wistar rats weighing 160 to 180 g (7 animals for each group), after a 24 hour-fast, were given orally the test drug (50 mg/kg and/or 100 mg/kg) suspended in 0.4% CMC, and placed in the stress cage made of a galvanized wire net, which was then immerged into the thermostatic water bath kept on 23° C. until the lower part of the sternum of the animals. Seven hours later, the animals were lapotomized to measure the area of the mucosa produced in the stomach, and the inhibition ration was calculated.

[2] = tested on: gastric lesions induced by 0.6 N hydrochloric acid; assay: Gastric Mucosal Protection Test (gastric lesions induced by 0.6 N hydrochloric acid); type: in vivo, Male Wistar rats; conditions: Rattus norvegicus, oral, Wistar rats, 0.6 N HCl, read-out: Inhibition ratio (lesion index, gastric mucosal protection)
Procedure: Experiment 2 Gastric Mucosal Protection Test
as §1
Also, symbols A-E in test drug column of Table 9 are as defined in Experiment 1.
The test of protection effect against the gastric lesions induced by 0.6 N hydrochloric acid (gastric mucosal protection effect) was carried out according to a method of A. Robert et al as described in Gastroenterology,vol. 77, pages 433-443 (1979).
Male Wistar rats weighing 180-210 g (7 animals for each group), after a 24 hour-fast, were given orally the test drug (50 mg/kg and/or 100 mg/kg) suspended in 0.4% CMC. After standing at room temperature for 2 hours, 0.6 N hydrochloric acid was given orally in a dose of 1 ml per rat. After standing at room temperature for a further one hour, rats were killed to measure the length of the gastric mucosal lesions induced in the stomachs, and total of the length was designated as the lesion index per rat.
The inhibition ratio (%) was calculated by comparison of the lesion index of the group treated with the test drug with the untreated group.

[3] = tested on: gastric acid secretion; assay: 2-DG-induced Acid Secretion Test, Gastric Lumen Perfused Rats; type: in vivo; conditions: intraperitoneal
Procedure: Experiment 3 2-DG-induced Acid Secretion Test Gastric Lumen Perfused Rats
The test was carried out according to the method of K. Watanabe et al in Eur. J. Pharmacology, vol. 90, page 11-17 (1983), and the inhibition ratio of gastric acid secretion of the test drug was calculated.
Number and symbol in test drug column are as defined above.
The test drug was given intraperitoneally.

Row | Compound | inhibition in vivo at 50 mg/kg [1] | inhibition in vivo at 50 mg/kg [2] | other results
1 | CCCCC/C=C/c1ccc(/C=C/C(=O)c2ccc(OCC=C(C)C)cc2OCC(=O)O)cc1 [Example 52] | 93.4% |  | 
2 | CCC(C)c1ccc(/C=C/C(=O)c2ccc(OCC=C(C)C)cc2OCC(=O)O)cc1 (centres unmarked) [Example 24] | 70.5% |  | 
3 | CCCCCc1ccc(/C=C/C(=O)c2ccc(OCC=C(C)C)cc2OCC(=O)O)cc1 [Example 27] | 86.3% |  | 
4 | CCCC/C=C/c1ccc(/C=C/C(=O)c2ccc(OCC=C(C)C)cc2OCC(=O)O)cc1 [Example 51] | 93.3% |  | 
5 | CC(C)=CCOc1ccc(C(=O)/C=C/c2ccc(CCC(C)C)cc2)c(OCC(=O)O)c1 [Example 28] | 89% |  | 
6 | CCCCCCCc1ccc(/C=C/C(=O)c2ccc(OCC=C(C)C)cc2OCC(=O)O)cc1 [Example 30, 2'-carboxymethoxy-4-n-heptyl-4'-(3-methyl-2-butenyloxy)chalcone] | 91.8% | 83.8% | inhibition in vivo at 100 mg/kg [2]: 94.4%
7 | CCCc1ccc(/C=C/C(=O)c2ccc(OCC=C(C)C)cc2OCC(=O)O)cc1 [E, 2'-carboxymethoxy-4'-(3-methyl-2-butenyloxy)-4-n-propylchalcone, reference compound] | 33.7% | 24.8% | inhibition in vivo at 100 mg/kg [1]: 57.1%
8 | CC(C)=CCOc1ccc(/C=C/C(=O)c2ccc(OCC=C(C)C)cc2OCC(=O)O)cc1 [C, 2'-carboxymethoxy-4,4'-bis(3-methyl-2-butenyloxy)chalcone, reference compound] | < 10% | < 10% | Inhibition ratio of gastric acid secretion ([3]; 200 mg/kg): 35.2%
9 | CC(C)=CCOc1ccc(C(=O)/C=C/c2ccc(C(C)(C)C)cc2)c(OC(C)C(=O)O)c1 (centres unmarked) [Example 45, 4-(t-butyl)-2'-(1-carboxethoxy)-4'-(3-methyl-2-butenyloxy)chalcone] | 50.4% |  | 
10 | CCCCCCCCCCCCCCCc1ccccc1/C=C/C(=O)c1ccc(OCC=C(C)C)cc1OCC(=O)O [Example 36] | 48.7% |  | 
11 | CCCCCCCc1ccc(/C=C/C(=O)c2ccc(OCC=C(C)C)cc2OCC(=O)OCC)cc1 [Example 18] |  | 37.6% | inhibition in vivo at 100 mg/kg [2]: 53.8%
12 | C=CCCc1ccc(/C=C/C(=O)c2ccc(OCC=C(C)C)cc2OCC(=O)O)cc1 [Example 54] | 56.9% |  | 
13 | CCCCc1ccc(/C=C/C(=O)c2ccc(OCC=C(C)C)cc2OCC(=O)O)cc1 [Example 25] | 61% |  | inhibition in vivo at 100 mg/kg [1]: 63%
14 | CC(C)=CCOc1ccc(C(=O)/C=C/c2ccc(C(=O)O)cc2)c(OCC(=O)O)c1 [A, 4-carboxy-2'-carboxymethoxy-4'-(3-methyl-2-butenyloxy)chalcone, reference compound] | < 10% | < 10% | 
15 | CCCCCCc1ccc(/C=C/C(=O)c2ccc(OCC=C(C)C)cc2OC(C)C(=O)O)cc1 (centres unmarked) [Example 46] | 63% |  | 
16 | CC(C)=CCOc1ccc(C(=O)/C=C/c2ccc(C)cc2)c(OCC(=O)O)c1 [D, 2'-carboxymethoxy-4-methyl-4'-(3-methyl-2-butenyloxy)chalcone, reference compound] | < 10% | < 10% | inhibition in vivo at 100 mg/kg [1]: 26.2%
17 | CCCCCCc1ccc(/C=C/C(=O)c2ccc(OCC=C(C)C)cc2OCC(=O)O)cc1 [Example 29, 2'-carboxymethoxy-4-n-hexyl-4'-(3-methyl-2-butenyloxy)chalcone] | 67.3% | 81.2% | inhibition in vivo at 100 mg/kg [2]: 83.7%
18 | CC(C)=CCOc1ccc(C(=O)/C=C/c2ccc(C(C)(C)C)cc2)c(OCCCC(=O)O)c1 [Example 48] |  |  | inhibition in vivo at 100 mg/kg [1]: 72%
19 | CCCCCCCCc1ccc(/C=C/C(=O)c2ccc(OCC=C(C)C)cc2OCC(=O)O)cc1 [Example 31] | 77.2% |  | 
20 | CC(C)=CCOc1ccc(C(=O)/C=C/c2ccc(OCC(=O)O)cc2)c(OCC(=O)O)c1 [B, 2',4-bis(carboxymethoxy)-4'-(3-methyl-2-butenyloxy)chalcone, reference compound] | < 10% | < 10% | 
21 | CCCCCC/C=C/c1ccc(/C=C/C(=O)c2ccc(OCC=C(C)C)cc2OCC(=O)O)cc1 [Example 49, 2'-carboxymethoxy-4'-(3-methyl-2-butenyloxy)-4-(1-(E)-octenyl)chalcone] | 76.6% |  | 
22 | CC(C)=CCOc1ccc(C(=O)/C=C/c2ccc(C(C)(C)C)cc2)c(OCC(=O)O)c1 [Example 44, 4-t-butyl-2'-carboxymethoxy-4'-(3-methyl-2-butenyloxy)chalcone] | 76% | 61.9% | Inhibition ratio of gastric acid secretion ([3]; 30 mg/kg): 54.3%; Inhibition ratio of gastric acid secretion ([3]; 100 mg/kg): 66.8%; inhibition in vivo at 100 mg/kg [1]: 84.2%; inhibition in vivo at 100 mg/kg [2]: 82.8%
